The text below walks through data of patent US20100137261A1, “Method for treating aortic stenosis with non-antibacterial tetracycline formulations” (priority 2004, published 2010).

The structures appear in SMILES notation. Counter-ions that a name gives are not always drawn. Like-named read-outs stand apart in the source and are kept apart here.

Data set [1] is described as follows: Serum levels after oral dosing in humans. To be noted: dose of about 10 to about 20 mg/day.
Data set [2] deals with matrix metalloproteinase-9 (MMP-9) synthesis. In words: Stenotic valve tissue culture, gelatinase (MMP-2 and MMP-9) assay. The class given is cell-based. The method, then:
The study was conducted using tissue collected from four surgically removed, stenotic tricuspid valves. […] Gelatinases (MMP-2 and MMP-9) from the valve tissue samples were assayed. The analyzed bands were related to the total protein measured using a Bio-Rad DC Protein Assay Kit (Bio-Rad, Hercules, Calif.).

The conditions of data set [3]: single dose of two 100 mg minocycline HCl tablets, adult human; cited from earlier work.
For data set [4] the following is noted: 250 mg tetracycline HCl every six hours over a twenty-four hour period; cited from earlier work.
[5] abbreviates: 1 μM, stenotic tricuspid valve tissue incubated for ten days.

As to `NC(=O)C1=C(O)C[C@@H]2C[C@@H]3Cc4cccc(O)c4C(=O)C3=C(O)[C@]2(O)C1=O` [CMT-3, 6-demethyl-6-deoxy-4-de(dimethylamino)tetracycline], the “serum levels in humans” value in data set [1] is recorded as “about 1.0 μg/ml”. In data set [2], the MMP-9 inhibitory effect entry is listed as “inhibitory effect was seen”, the “comparative efficiency of impact on MMP-9 synthesis” value is recorded as “most efficient inhibitor of MMP-9 synthesis” and the “expression of MMP-9 / MMP-9 synthesis” value is “decreased significantly from day 6 to the end of the culture”. For the compound `CC1c2cccc(O)c2C(=O)C2=C(O)C3(O)C(=O)C(C(N)=O)=C(O)CC3C(O)C21` (stereo not drawn) [CMT-8, 4-dedimethylaminodoxycycline], the MMP-9 inhibitory effect entry in data set [2] (setting [5]) was “inhibitory effect was seen”.

Regarding `CN(C)c1ccc(O)c2c1C[C@H]1C[C@H]3[C@H](N(C)C)C(O)=C(C(N)=O)C(=O)[C@@]3(O)C(O)=C1C2=O` [minocycline HCl], in data set [3], the “minocycline serum level (average)” value was 2.24 µg/mL.

With `CN(C)[C@@H]1C(O)=C(C(N)=O)C(=O)[C@@]2(O)C(O)=C3C(=O)c4c(O)cccc4[C@@](C)(O)[C@H]3C[C@@H]12` [tetracycline HCl], the peak plasma concentration entry in data set [4] is listed as “approximately 3 μg/ml”. With `CN(C)[C@@H]1C(O)=C(C(N)=O)C(=O)[C@@]2(O)C(O)=C3C(=O)c4c(O)cccc4[C@@](C)(O)[C@H]3C[C@@H]12` [tetracycline], the MMP-9 inhibitory effect result in data set [2] (setting [5]) is recorded as “no significant inhibitory effect”. In data set [2] (30 μM, stenotic tricuspid valve tissue incubated for ten days), the “expression of MMP-9 / MMP-9 synthesis” value is “had an inhibitory effect on MMP-9 synthesis, but only at the end of the culture”.
